In US9725465B2, “Biaryl acetamide compounds and methods of use thereof” (Ambit Biosciences Corporation, priority 2013, dated 2017) one finds IC50 and Kd data, which are given here for 19 compounds.

One experiment has as its target FLT3-ITD (Homo sapiens (Human), UniProt P36888, INS600HVDFREYEYD). The experiment in a line: pFLT3 MSD assay, Ba/F3 FLT3-ITD. The experiment is classed as cell-based. The settings on record: Ba/F3 FLT3-ITD cells, 2 hours, read-out: BaF3-FLT3-ITD pFlt3 IC50.
In the next experiment the target is FLT3 kinase (Homo sapiens (Human), UniProt P36888). As to the kind of experiment: Competition binding assay (Kd), FLT3. Particulars: competition binding assay.
Another experiment deals with KIT kinase (Homo sapiens (Human), UniProt P10721). The experiment in a line: Competition binding assay (Kd), KIT. Particulars: competition binding assay. The essentials: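 Kd derived from eleven-point threefold serial dilutions of compound competing with bead-bound ligand for kinase; bound kinase eluted and measured by quantitative PCR. Kinase supplied either as a T7 phage fusion or expressed in HEK-293 cells with a DNA tag; DMSO served as control.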

Molecules are shown by their SMILES. Some results are limits rather than exact numbers.

The IC50 is the midpoint of a concentration-inhibition curve. As usually defined, the Kd is the equilibrium constant for the complex coming apart.

Chain of FLT3 kinase (P36888 27-993): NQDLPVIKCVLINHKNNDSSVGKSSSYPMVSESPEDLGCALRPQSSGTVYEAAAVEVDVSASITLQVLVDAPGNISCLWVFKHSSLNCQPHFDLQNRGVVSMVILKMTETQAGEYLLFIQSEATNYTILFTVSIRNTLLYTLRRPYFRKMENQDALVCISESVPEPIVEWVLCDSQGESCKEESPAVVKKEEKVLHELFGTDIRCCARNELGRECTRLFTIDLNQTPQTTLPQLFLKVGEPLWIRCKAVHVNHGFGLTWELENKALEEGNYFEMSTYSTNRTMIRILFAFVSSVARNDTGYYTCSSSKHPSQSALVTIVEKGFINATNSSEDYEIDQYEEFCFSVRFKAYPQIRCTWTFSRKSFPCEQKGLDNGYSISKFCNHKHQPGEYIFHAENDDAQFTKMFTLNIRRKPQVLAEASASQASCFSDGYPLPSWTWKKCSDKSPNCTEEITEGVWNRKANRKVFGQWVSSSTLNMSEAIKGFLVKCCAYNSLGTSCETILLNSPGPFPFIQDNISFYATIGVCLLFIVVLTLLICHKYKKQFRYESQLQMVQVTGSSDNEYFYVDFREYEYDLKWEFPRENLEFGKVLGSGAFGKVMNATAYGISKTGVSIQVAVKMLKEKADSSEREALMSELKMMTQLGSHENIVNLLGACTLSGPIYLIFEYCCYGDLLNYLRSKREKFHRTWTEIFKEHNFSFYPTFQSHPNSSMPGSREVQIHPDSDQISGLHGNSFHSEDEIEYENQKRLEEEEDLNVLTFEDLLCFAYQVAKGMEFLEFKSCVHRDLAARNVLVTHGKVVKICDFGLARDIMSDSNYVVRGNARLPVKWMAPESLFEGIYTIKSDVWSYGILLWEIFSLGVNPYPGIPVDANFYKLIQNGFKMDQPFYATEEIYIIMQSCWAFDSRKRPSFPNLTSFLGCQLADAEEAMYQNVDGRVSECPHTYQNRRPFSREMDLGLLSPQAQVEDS
Chain of FLT3-ITD (P36888 other isoform, or with tags, fused parts or gaps limits assumed, stated change not applied): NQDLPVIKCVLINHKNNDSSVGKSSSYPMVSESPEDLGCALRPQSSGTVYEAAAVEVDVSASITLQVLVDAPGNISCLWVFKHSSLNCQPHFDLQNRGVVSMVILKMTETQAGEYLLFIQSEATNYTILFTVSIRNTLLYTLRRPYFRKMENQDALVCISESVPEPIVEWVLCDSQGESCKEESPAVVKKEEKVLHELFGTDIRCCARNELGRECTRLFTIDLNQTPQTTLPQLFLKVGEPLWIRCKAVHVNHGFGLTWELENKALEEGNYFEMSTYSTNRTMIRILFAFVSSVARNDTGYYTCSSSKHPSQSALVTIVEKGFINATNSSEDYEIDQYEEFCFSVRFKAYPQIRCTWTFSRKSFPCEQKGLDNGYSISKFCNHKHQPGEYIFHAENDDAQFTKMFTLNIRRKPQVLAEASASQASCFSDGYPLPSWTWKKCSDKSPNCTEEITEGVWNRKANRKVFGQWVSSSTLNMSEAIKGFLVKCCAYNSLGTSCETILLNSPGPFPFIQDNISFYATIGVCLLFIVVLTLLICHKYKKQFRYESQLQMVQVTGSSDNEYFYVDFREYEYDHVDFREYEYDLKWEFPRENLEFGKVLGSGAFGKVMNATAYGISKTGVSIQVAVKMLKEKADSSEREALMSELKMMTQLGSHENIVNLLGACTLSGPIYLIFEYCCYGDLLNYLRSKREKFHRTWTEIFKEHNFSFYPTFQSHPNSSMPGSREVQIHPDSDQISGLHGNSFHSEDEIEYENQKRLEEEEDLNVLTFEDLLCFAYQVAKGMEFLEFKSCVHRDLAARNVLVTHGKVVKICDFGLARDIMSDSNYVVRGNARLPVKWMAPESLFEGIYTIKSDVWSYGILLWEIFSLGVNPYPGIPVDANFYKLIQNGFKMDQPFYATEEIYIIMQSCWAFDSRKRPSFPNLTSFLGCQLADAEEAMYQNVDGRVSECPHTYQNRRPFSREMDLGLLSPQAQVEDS
Chain of KIT kinase (P10721 26-976): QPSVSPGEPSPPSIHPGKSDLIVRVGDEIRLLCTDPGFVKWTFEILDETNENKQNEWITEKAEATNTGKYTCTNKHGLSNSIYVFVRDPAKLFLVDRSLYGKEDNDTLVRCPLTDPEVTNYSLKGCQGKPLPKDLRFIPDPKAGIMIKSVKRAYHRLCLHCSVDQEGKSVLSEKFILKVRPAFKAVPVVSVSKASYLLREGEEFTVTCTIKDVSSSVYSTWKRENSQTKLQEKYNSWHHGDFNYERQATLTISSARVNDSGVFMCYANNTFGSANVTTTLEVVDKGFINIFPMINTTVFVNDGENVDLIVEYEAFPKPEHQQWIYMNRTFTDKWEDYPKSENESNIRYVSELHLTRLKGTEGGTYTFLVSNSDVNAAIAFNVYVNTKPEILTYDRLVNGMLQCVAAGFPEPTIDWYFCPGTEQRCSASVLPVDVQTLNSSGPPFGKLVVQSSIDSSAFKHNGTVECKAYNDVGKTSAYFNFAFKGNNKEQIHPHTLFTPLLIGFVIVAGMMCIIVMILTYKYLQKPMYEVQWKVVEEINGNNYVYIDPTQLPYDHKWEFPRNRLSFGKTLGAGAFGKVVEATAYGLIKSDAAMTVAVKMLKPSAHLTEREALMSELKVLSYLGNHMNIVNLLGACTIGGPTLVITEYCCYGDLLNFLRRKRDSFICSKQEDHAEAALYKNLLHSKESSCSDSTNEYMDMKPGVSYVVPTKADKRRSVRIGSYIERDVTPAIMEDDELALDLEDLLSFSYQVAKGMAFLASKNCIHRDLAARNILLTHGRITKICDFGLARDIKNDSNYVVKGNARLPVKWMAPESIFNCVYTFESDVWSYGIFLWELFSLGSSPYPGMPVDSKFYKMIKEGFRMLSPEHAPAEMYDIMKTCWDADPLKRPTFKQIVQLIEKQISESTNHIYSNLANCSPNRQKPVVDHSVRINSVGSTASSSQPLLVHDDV
Description for FLT3-ITD: In certain other embodiments, the compounds disclosed herein are tested in a FLT3 phosphorylation assay to determine their cellular potency against one or both of FLT3-ITD and FLT3 tyrosine kinase domain mutants. In certain embodiments, the FLT3 phosphorylation assay assesses the potency of compounds as FLT3 inhibitors by measuring the reduction in formation of phosphorylated FLT3 in the cells.
Gene constructs containing the human FLT3 sequences FLT3-ITD, FLT3-ITD-F691L, FLT3-ITD-D835V and FLT3-D835V were synthesized by reverse translation of the human protein sequences, with codons optimized for mammalian expression. Sequence of the internal tandem duplication (ITD) was based on the MV4-11 ITD sequence. […] Viruses were transduced into the IL-3-dependent, murine macrophage cell line, Ba/F3, and selected for puromycin resistance and IL-3 independence. All cell lines were cloned by limiting dilution and clones were used for all subsequent cell assays.
Briefly, cell lines were serum starved overnight in media containing 0.5% FBS. Cells were plated at 200,000 cells/well in 96-well round bottom plates in low serum, and 3-fold serial dilutions of test compounds were added for 2 hours at 37° C. […] After an overnight incubation at 4° C. shaking at 450 rpm, plates were washed with MSD wash buffer, and captured FLT3 was detected with biotinylated-anti-phosphotyrosine antibody 4G10 (Millipore) and SulfoTAG-streptavidin (MSD) for 1 hour at room temperature, and read on an MSD SECTOR Imager 6000. Percent remaining phospho-FLT3 in compound-treated cells was normalized to DMSO-treated cells, and IC50s were determined using Igor Pro software. All compounds are assayed in duplicate cell and MSD plates.

For the compound `COc1cc2nc(C(N)=O)c(-c3ccc(CC(=O)Nc4cc(C5(C(F)(F)F)CC5)on4)c(F)c3)nc2cc1OC` [Example 135, 3-[3-fluoro-4-[2-oxo-2-[[5-[1-(trifluoro-methyl)cyclopropyl]isoxazol-3-yl]amino]ethyl]phenyl]-6,7-dimethoxy-quinoxaline-2-carboxamide], at FLT3-ITD, the IC50 is above 50 nM. Besides, the Kd at FLT3 kinase and on KIT kinase was above 50 nM throughout.
As to `CN(C)CCNC(=O)c1cc2cc(-c3ccc(CC(=O)Nc4cc(C5(C(F)(F)F)CC5)on4)c(F)c3)cnc2[nH]1` [Example 108, N-[2-(dimethylamino)ethyl]-5-[3-fluoro-4-[2-oxo-2-[[5-[1-(trifluoromethyl)cyclo-propyl]isoxazol-3-yl]amino]ethyl]phenyl]-1H-pyrrolo[2,3-b]pyridine-2-carboxamide], at FLT3-ITD, the IC50 was below 10 nM. The dissociation constant (Kd) at FLT3 kinase and on KIT kinase was below 5 nM throughout.
Take `COc1cc2ncc(-c3ccc(CC(=O)Nc4cc(C(C)(C)C(F)(F)F)on4)c(F)c3)c(Cl)c2cc1OC` [Example 138, 2-[4-(4-chloro-6,7-dimethoxy-3-quinolyl)-2-fluoro-phenyl]-N-[5-(2,2,2-trifluoro-1,1-dimethyl-ethyl)isoxazol-3-yl]acetamide]: on FLT3-ITD, the IC50 was below 10 nM. For the same compound, the dissociation constant Kd on FLT3 kinase and at KIT kinase was below 5 nM each time.
For `COc1cc2ncc(-c3ccc(CC(=O)Nc4cc(C(C)(C)C(F)(F)F)on4)c(F)c3)nc2cc1OCCO` [Example 170, 2-[2-fluoro-4-[7-(2-hydroxyethoxy)-6-methoxy-quinoxalin-2-yl]phenyl]-N-[5-(2,2,2-trifluoro-1,1-dimethyl-ethyl)isoxazol-3-yl]acetamide], the IC50 at FLT3-ITD is below 10 nM. In addition, the Kd on FLT3 kinase and on KIT kinase was below 5 nM in each case.
For `COc1cc2nc(-c3ccc(CC(=O)Nc4cc(C5(C(F)(F)F)CC5)on4)c(F)c3)cnc2cc1OCCNC(C)=O` [Example 168, 2-[4-[6-(2-acetamidoethoxy)-7-methoxy-quinoxalin-2-yl]-2-fluoro-phenyl]-N-[5-[1-(trifluoromethyl)cyclo-propyl]isoxazol-3-yl]acetamide], the half-maximal inhibitory concentration (IC50) on FLT3-ITD is below 10 nM. The Kd on FLT3 kinase and at KIT kinase was below 5 nM throughout.
With `COc1cc2nc(-c3ccc(CC(=O)Nc4cc(C(C)(C)C(F)(F)F)on4)c(F)c3)cnc2cc1OC1COC1` [Example 147, 2-[2-fluoro-4-[7-methoxy-6-(oxetan-3-yloxy)quinoxalin-2-yl]phenyl]-N-[5-(2,2,2-trifluoro-1,1-dimethyl-ethyl)isoxazol-3-yl]acetamide], the concentration for half-maximal inhibition (IC50) on FLT3-ITD is below 10 nM. For the same compound, the Kd on FLT3 kinase and on KIT kinase was below 5 nM in each case.
For `COc1cc2ncc(-c3ccc(CC(=O)Nc4cc(C(C)(C)C)on4)cc3)nc2cc1OC` [Example 6, N-(5-(tert-butyl)isoxazol-3-yl)-2-(4-(6,7-dimethoxyquinoxalin-2-yl)phenyl)acetamide], the concentration for half-maximal inhibition (IC50) on FLT3-ITD was below 10 nM. Besides, the Kd at FLT3 kinase and at KIT kinase was below 5 nM in each case.
For `COc1cc2nc(-c3ccc(CC(=O)Nc4cc(C5(C(F)(F)F)CC5)on4)c(F)c3)cnc2cc1OCCN1CCOCC1` [Example 79, 2-(2-fluoro-4-(7-methoxy-6-(2-morpholinoethoxy)quinoxalin-2-yl)phenyl)-N-(5-(1-(trifluoromethyl)cyclopropyl)isoxazol-3-yl)acetamide], the IC50 on FLT3-ITD was below 10 nM. Further, the Kd on FLT3 kinase and on KIT kinase was below 5 nM throughout.
In the case of `CN(C)CCNC(=O)c1cc2cc(-c3ccc(CC(=O)Nc4cc(C(C)(C)C)on4)cc3)cnc2[nH]1` [Example 66, 5-(4-(2-((5-(tert-butyl)isoxazol-3-yl)amino)-2-oxoethyl)phenyl)-N-(2-(dimethylamino)ethyl)-1H-pyrrolo[2,3-b]pyridine-2-carboxamide], the IC50 on FLT3-ITD was below 10 nM. Also, the Kd at FLT3 kinase and on KIT kinase was below 5 nM throughout.
As for `CC(C)(C)c1cc(NC(=O)Cc2ccc(-c3cnc4[nH]c(C(=O)NCCO)cc4c3)cc2)no1` [Example 64, 5-(4-(2-((5-(tert-butyl)isoxazol-3-yl)amino)-2-oxoethyl)phenyl)-N-(2-hydroxyethyl)-1H-pyrrolo[2,3-b]pyridine-2-carboxamide], the IC50 on FLT3-ITD is below 10 nM. Moreover, the Kd on FLT3 kinase and on KIT kinase was below 5 nM in each case.
On to `COc1cc2ncc(-c3ccc(CC(=O)Nc4cc(C(C)(C)C(F)(F)F)on4)c(F)c3)c(N)c2cc1OC` [Example 143, 2-[4-(4-amino-6,7-dimethoxy-3-quinolyl)-2-fluoro-phenyl]-N-[5-(2,2,2-trifluoro-1,1-dimethyl-ethyl)isoxazol-3-yl]acetamide], for which the IC50 at FLT3-ITD was in the range of 10 to 20 nM. The results for the Kd on FLT3 kinase and on KIT kinase were below 5 nM and 5 to 20 nM, respectively.
Take `COCCOc1cc2nc(-c3ccc(CC(=O)Nc4cc(C5(C(F)(F)F)CC5)on4)c(F)c3)cnc2cc1OC` [compound 77]: the IC50 at FLT3-ITD is below 10 nM. Also, the dissociation constant Kd on FLT3 kinase and at KIT kinase was below 5 nM in each case.
On to `O=C(Cc1ccc(-c2cnc3nn4c(c3c2)OC(CO)C4)cc1F)Nc1cc(C2(C(F)(F)F)CC2)on1` (stereo not drawn) [Example 98, 2-[2-fluoro-4-[2-(hydroxy-methyl)-2,3-dihydro-oxazolo[3,4]pyrazolo[1,3-b]pyridin-8-yl]phenyl]-N-[5-[1-(trifluoro-methyl)cyclopropyl]isoxazol-3-yl]acetamide], for which the IC50 at FLT3-ITD was below 10 nM. In addition, the Kd on FLT3 kinase and on KIT kinase was below 5 nM each time.
As for `CN1CCC(NC(=O)c2cc3cc(-c4ccc(CC(=O)Nc5cc(C(C)(C)C)on5)cc4)cnc3[nH]2)CC1` [Example 69, 5-(4-(2-((5-(tert-butyl)isoxazol-3-yl)amino)-2-oxoethyl)phenyl)-N-(1-methylpiperidin-4-yl)-1H-pyrrolo[2,3-b]pyridine-2-carboxamide], the half-inhibitory concentration (IC50) on FLT3-ITD is below 10 nM. Moreover, the Kd on FLT3 kinase and at KIT kinase was below 5 nM throughout.
`O=C(Cc1ccc(-c2cnc3[nH]c(C(=O)O)cc3c2)cc1F)Nc1cc(C2(C(F)(F)F)CC2)on1` [Example 106, 5-[3-fluoro-4-[2-oxo-2-[[5-[1-(trifluoromethyl)cyclo-propyl]isoxazol-3-yl]amino]ethyl]phenyl]-1H-pyrrolo[2,3-b]pyridine-2-carboxylic acid]: on FLT3-ITD, the IC50 was 10 to 20 nM. The Kd at FLT3 kinase and on KIT kinase was below 5 nM each time.
With `COc1cc2nc(-c3ccc(CC(=O)Nc4cc(C(C)(C)C(F)(F)F)on4)c(F)c3)cnc2cc1O` [Example 164, 2-[2-fluoro-4-(6-hydroxy-7-methoxy-quinoxalin-2-yl)phenyl]-N-[5-(2,2,2-trifluoro-1,1-dimethyl-ethyl)isoxazol-3-yl]acetamide], the IC50 at FLT3-ITD was below 10 nM. The Kd was below 5 nM at FLT3 kinase and 5 to 20 nM on KIT kinase.
Consider `O=C(Cc1ccc(-c2cnc3[nH]c(C(=O)N4CC(O)C4)cc3c2)cc1F)Nc1cc(C2(C(F)(F)F)CC2)on1` [Example 111, 2-[2-fluoro-4-[2-(3-hydroxyazetidine-1-carbonyl)-1H-pyrrolo[2,3-b]pyridin-5-yl]phenyl]-N-[5-[1-(trifluoro-methyl)cyclopropyl]isoxazol-3-yl]acetamide], for which the IC50 at FLT3-ITD was below 10 nM. Besides, the dissociation constant (Kd) at FLT3 kinase and at KIT kinase was below 5 nM in each case.
With `COc1cc2nc(-c3ccc(CC(=O)Nc4cc(C5(C(F)(F)F)CC5)on4)c(F)c3)cnc2cc1OCCN1CCCC1` [Example 134, 2-[2-fluoro-4-[7-methoxy-6-(2-pyrrolidin-1-ylethoxy)quinoxalin-2-yl]phenyl]-N-[5-[1-(trifluoromethyl)cyclo-propyl]isoxazol-3-yl]acetamide], on FLT3-ITD, the IC50 was below 10 nM. Also, the Kd on FLT3 kinase and at KIT kinase was below 5 nM each time.
Take `COc1cc2nc(C(=O)O)c(-c3ccc(CC(=O)Nc4cc(C5(C(F)(F)F)CC5)on4)c(F)c3)nc2cc1OC` [Example 133, 3-[3-fluoro-4-[2-oxo-2-[[5-[1-(trifluoro-methyl)cyclopropyl]isoxazol-3-yl]amino]ethyl]phenyl]-6,7-dimethoxy-quinoxaline-2-carboxylic acid]: the IC50 on FLT3-ITD is above 50 nM. In addition, the equilibrium dissociation constant (Kd) at FLT3 kinase was 20 to 50 nM; at KIT kinase, above 50 nM.
